Assay results: patent publication US4451463A, “Alcohol derivatives” (Imperial Chemical Industries PLC, priority 1981, dated 1984)

Test: LD50 in mice, dosed intravenously
Settings: mouse, in vivo, iv

## NC(=NCC(F)(F)F)Nc1ccnc(OCCCO)n1 [Example 1, 4-[2-(2,2,2-trifluoroethyl)guanidino]-2-(3-hydroxypropoxy)pyrimidine]
  LD50: ~30 mg/kg
